# Test results published in US10538535B2, “Antitumoral compounds” (priority 2017, dated 2020).
# Read-outs that look alike come from different tables or passages of the source.
# How the values were obtained:
# [1] = test system: Lewis lung carcinoma; details: cited from earlier work
# [2] = test system: P388 lymphoma; details: cited from earlier work
# [3] = test system: HT1080 tumors; experiment: In vivo xenograft, human fibrosarcoma HT1080; details: iv weekly, 32 and ET-736 0.5 mg/Kg
# Procedure: (§3) Female athymic nu/nu mice (Harlan Laboratories Models, S. L. Barcelona, Spain or Envigo, Spain) were utilized for all experiments. Animal were housed in individually ventilated cages Sealsafe® Plus, Techniplast S.P.A.), up to ten per cage on a 12-hour light-dark cycle at 21-23° C. and 40-60% humidity. […] Animals were acclimated for at least 5 days prior to tumor implantation with a tumor cell suspension.
# HT1080 cells were maintained in vitro at 37° C. with 5% CO2 in Minimum Essential Medium Eagle (MEME) (Sigma-Aldrich, Co). Each animal was orthotopically implanted into gastroecnemius muscle by an intramuscular injection using a 26 G needle and a 1 cc syringe at 4-6 weeks of age, with 10×10^6 HT1080 cells, suspended in serum free medium, without antibiotics.
# (§4) Treatment tolerability was assessed by monitoring body weight evolution, clinical signs of systemic toxicity, as well as evidences of local damage in the injection site.
# In xenograft studies with HT1080 cell line: • Total diameter (tumor+leg) measurements were determined by using digital caliper (Fowler Sylvac, S235PAT).
# (§5) Treatments producing >20% lethality and/or 20% net body weight loss were considered toxic.
# [4] = test system: HGC27 tumors
# Procedure: as §3
# HGC27 cells were maintained in vitro at 37° C. with 5% CO2 in Iscove's Modified Dulbecco's Medium (Sigma Aldrich, Co). Culture cells were passage every 3 to 5 days on reaching confluence. Each animal was subcutaneously implanted (on the right flank using 26 G needle and a 1 cc syringe) at 4-6 weeks of age with 5×10^6 HGC-27 cells suspended in 0.05 mL of a solution consisting of 50% Matrigel® (Corning Incorporated Life Sciences), 50% medium without serum or antibiotics.
# as §4, §5
# [5] = MTMD (Maximum Tolerated Multiple Dose) determination, iv weekly x3; assay type: in vivo; details: mice; iv/Q7dx3
# From the text: (§1) Female CD-1 or Athymic Nude-Fox1 nu/nu mice (Envigo) were utilized for all experiments. […] Animals were acclimated for five days prior to being individually tattoo-identified. Animal protocols were reviewed and approved according to the regional Institutional Animal Care and Use Committees.
# (§2) Mice were randomly allocated into experimental groups and intravenously administered, once for the MTD (Maximum Tolerated Dose) determination or one administration a week during three consecutive weeks, for the MTMD (Maximum Tolerated Multiple Dose) determination study. The animals were administered with white formulation or with compound dissolved in the experimental formulation at different concentrations. The volume administered was always 10 mL/kg. Once administered, animals were monitored for clinical signs of systemic toxicity, changes in body weight and mortality up to 14 days after the administration.
# [6] = test system: B16 melanoma; details: cited from earlier work
# [7] = MTD (Maximum Tolerated Dose) determination, single iv administration; assay type: in vivo; details: female, mouse, in vivo; mice; iv/SD
# From the text: as §1, §2
smiles,measurement,setting,value
"COc1c(C)cc2c(c1O)[C@@H]1[C@@H]3[C@@H]4SC[C@]5(NCCc6c5[nH]c5ccccc65)C(=O)OC[C@@H](c5c6c(c(C)c(OC(C)=O)c54)OCO6)N3[C@@H](O)[C@H](C2)N1C [ET-736, Ecteinascidin 736]",protection of mice in vivo,[1],protects mice in vivo at very low concentrations
same,protection of mice in vivo,[2],protects mice in vivo at very low concentrations
same,Total diameter (tumor + leg),"[3]; Table 60, Day 2",8.3 mm
same,Total diameter (tumor + leg),"[3]; Table 60, Day 5",7.1 mm
same,Total diameter (tumor + leg),"[3]; Table 60, Day 7",7.6 mm
same,Total diameter (tumor + leg),"[3]; Table 60, Day 9",7.4 mm
same,Total diameter (tumor + leg),"[3]; Table 60, Day 12",7.0 mm
same,Total diameter (tumor + leg),"[3]; Table 60, Day 14",7.1 mm
same,Total diameter (tumor + leg),"[3]; Table 60, Day 16",7.4 mm
same,Total diameter (tumor + leg),"[3]; Table 60, Day 19",8.4 mm
same,Total diameter (tumor + leg),"[3]; Table 60, Day 21",8.6 mm
same,Total diameter (tumor + leg),"[3]; Table 60, Day 23",10.0 mm
same,Total diameter (tumor + leg),"[3]; Table 60, Day 27",10.9 mm
same,Total diameter (tumor + leg),"[3]; Table 60, Day 30",13.2 mm
same,Total diameter (tumor + leg),"[3]; Table 60, Day 33",14.3 mm
same,Total diameter (tumor + leg),"[3]; Table 60, Day 35",15.2 mm
same,Total diameter (tumor + leg),"[3]; Table 60, Day 37",15.8 mm
same,Total diameter (tumor + leg),"[3]; Table 60, Day 40",16.6 mm
same,Total diameter (tumor + leg),"[3]; Table 60, Day 42",18.0 mm
same,Median Tumor Volume,"[4]; Day 0, HGC27 xenograft",195.9 mm^3
same,Median Tumor Volume,"[4]; Day 2, HGC27 xenograft",359.2 mm^3
same,Median Tumor Volume,"[4]; Day 5, HGC27 xenograft",537.6 mm^3
same,Median Tumor Volume,"[4]; Day 7, HGC27 xenograft",553.5 mm^3
same,Median Tumor Volume,"[4]; Day 9, HGC27 xenograft",604.7 mm^3
same,Median Tumor Volume,"[4]; Day 12, HGC27 xenograft",627.4 mm^3
same,Median Tumor Volume,"[4]; Day 14, HGC27 xenograft",648.0 mm^3
same,Median Tumor Volume,"[4]; Day 16, HGC27 xenograft",687.6 mm^3
same,Median Tumor Volume,"[4]; Day 19, HGC27 xenograft",760.0 mm^3
same,Median Tumor Volume,"[4]; Day 21, HGC27 xenograft",792.4 mm^3
same,Median Tumor Volume,"[4]; Day 23, HGC27 xenograft",818.9 mm^3
same,Median Tumor Volume,"[4]; Day 26, HGC27 xenograft",1026.1 mm^3
same,Median Tumor Volume,"[4]; Day 28, HGC27 xenograft",1354.9 mm^3
same,MTMD,[5],0.5 mg/kg
same,protection of mice in vivo,[6],protects mice in vivo at very low concentrations
COc1c(C)cc2c(c1O)[C@@H]1[C@@H]3[C@@H]4SC[C@]5(NCCc6c5oc5ccccc65)C(=O)OC[C@@H](c5c6c(c(C)c(OC(C)=O)c54)OCO6)N3[C@@H](O)[C@H](C2)N1C [Compound 32],MTD at 14 days,[7],0.5 mg/kg
same,Total diameter (tumor + leg),"[3]; Table 60, Day 2",8.9 mm
same,Total diameter (tumor + leg),"[3]; Table 60, Day 5",8.2 mm
same,Total diameter (tumor + leg),"[3]; Table 60, Day 7",8.8 mm
same,Total diameter (tumor + leg),"[3]; Table 60, Day 9",10.0 mm
same,Total diameter (tumor + leg),"[3]; Table 60, Day 12",8.8 mm
same,Total diameter (tumor + leg),"[3]; Table 60, Day 14",10.8 mm
same,Total diameter (tumor + leg),"[3]; Table 60, Day 16",11.8 mm
same,Total diameter (tumor + leg),"[3]; Table 60, Day 19",12.0 mm
same,Total diameter (tumor + leg),"[3]; Table 60, Day 21",14.0 mm
same,Total diameter (tumor + leg),"[3]; Table 60, Day 23",13.8 mm
same,Total diameter (tumor + leg),"[3]; Table 60, Day 27",13.6 mm
same,Total diameter (tumor + leg),"[3]; Table 60, Day 30",15.5 mm
same,Total diameter (tumor + leg),"[3]; Table 60, Day 33",18.0 mm
same,Median Tumor Volume,"[4]; Day 0, HGC27 xenograft",194.8 mm^3
same,Median Tumor Volume,"[4]; Day 2, HGC27 xenograft",386.3 mm^3
same,Median Tumor Volume,"[4]; Day 5, HGC27 xenograft",551.3 mm^3
same,Median Tumor Volume,"[4]; Day 7, HGC27 xenograft",579.2 mm^3
same,Median Tumor Volume,"[4]; Day 9, HGC27 xenograft",665.8 mm^3
same,Median Tumor Volume,"[4]; Day 12, HGC27 xenograft",701.1 mm^3
same,Median Tumor Volume,"[4]; Day 14, HGC27 xenograft",814.5 mm^3
same,Median Tumor Volume,"[4]; Day 16, HGC27 xenograft",959.9 mm^3
same,Median Tumor Volume,"[4]; Day 19, HGC27 xenograft",1312.4 mm^3
same,Median Tumor Volume,"[4]; Day 21, HGC27 xenograft",1626.8 mm^3
same,Median Tumor Volume,"[4]; Day 23, HGC27 xenograft",1737.3 mm^3
same,MTMD,[5],0.5 mg/kg
COc1c(C)cc2c(c1O)[C@@H]1[C@@H]3[C@@H]4SC[C@]5(N[C@H](C)Cc6c5[nH]c5ccccc65)C(=O)OC[C@@H](c5c6c(c(C)c(OC(C)=O)c54)OCO6)N3[C@@H](O)[C@H](C2)N1C [C],MTD at 14 days,[7],3 mg/kg
same,Median Tumor Volume,"[4]; iv, 3 mg/kg, 0 h",195.0 mm^3
same,Median Tumor Volume,"[4]; iv, 3 mg/kg, 48 h",391.0 mm^3
same,Median Tumor Volume,"[4]; iv, 3 mg/kg, 120 h",578.6 mm^3
same,Median Tumor Volume,"[4]; iv, 3 mg/kg, 168 h",708.2 mm^3
same,Median Tumor Volume,"[4]; iv, 3 mg/kg, 336 h",1496.8 mm^3
same,Median Tumor Volume,"[4]; iv, 3 mg/kg, 384 h",1690.6 mm^3
same,Median Tumor Volume,"[4]; iv, 3 mg/kg, 456 h",2004.0 mm^3
same,Median Tumor Volume,"[4]; iv, 3 mg/kg, 504 h",1741.4 mm^3
same,Median Tumor Volume,"[4]; iv, 3 mg/kg, 552 h",2056.4 mm^3
same,MTMD,[5],3.0 mg/kg
COc1c(C)cc2c(c1O)[C@@H]1[C@@H]3[C@@H]4SC[C@]5(N[C@@H](C)Cc6c5[nH]c5ccccc65)C(=O)OC[C@@H](c5c6c(c(C)c(OC(C)=O)c54)OCO6)N3[C@@H](O)[C@H](C2)N1C [D],Median Tumor Volume,"[4]; Table 28, Day 0, iv Days 0, 7, 14",157.4 mm^3
same,Median Tumor Volume,"[4]; Table 28, Day 2, iv Days 0, 7, 14",327.6 mm^3
same,Median Tumor Volume,"[4]; Table 28, Day 5, iv Days 0, 7, 14",439.6 mm^3
same,Median Tumor Volume,"[4]; Table 28, Day 7, iv Days 0, 7, 14",418.7 mm^3
same,Median Tumor Volume,"[4]; Table 28, Day 9, iv Days 0, 7, 14",567.9 mm^3
same,Median Tumor Volume,"[4]; Table 28, Day 12, iv Days 0, 7, 14",537.0 mm^3
same,Median Tumor Volume,"[4]; Table 28, Day 14, iv Days 0, 7, 14",654.6 mm^3
same,Median Tumor Volume,"[4]; Table 28, Day 16, iv Days 0, 7, 14",672.4 mm^3
same,Median Tumor Volume,"[4]; Table 28, Day 19, iv Days 0, 7, 14",843.0 mm^3
same,Median Tumor Volume,"[4]; Table 28, Day 21, iv Days 0, 7, 14",842.7 mm^3
same,Median Tumor Volume,"[4]; Table 28, Day 23, iv Days 0, 7, 14",963.7 mm^3
same,Median Tumor Volume,"[4]; Table 28, Day 26, iv Days 0, 7, 14",1203.3 mm^3
same,Median Tumor Volume,"[4]; Table 28, Day 28, iv Days 0, 7, 14",1589.7 mm^3
same,Median Tumor Volume,"[4]; Table 28, Day 30, iv Days 0, 7, 14",1777.6 mm^3
same,Median Tumor Volume,"[4]; Table 28, Day 33, iv Days 0, 7, 14",2146.2 mm^3
same,Median Tumor Volume,"[4]; iv, 0.5 mg/kg, 0 h",194.0 mm^3
same,Median Tumor Volume,"[4]; iv, 0.5 mg/kg, 48 h",324.2 mm^3
same,Median Tumor Volume,"[4]; iv, 0.5 mg/kg, 120 h",561.6 mm^3
same,Median Tumor Volume,"[4]; iv, 0.5 mg/kg, 168 h",504.2 mm^3
same,Median Tumor Volume,"[4]; iv, 0.5 mg/kg, 336 h",1056.8 mm^3
same,Median Tumor Volume,"[4]; iv, 0.5 mg/kg, 384 h",1440.2 mm^3
same,Median Tumor Volume,"[4]; iv, 0.5 mg/kg, 456 h",1717.9 mm^3
same,Median Tumor Volume,"[4]; iv, 0.5 mg/kg, 504 h",2043.4 mm^3
